Results taken from ChEMBL document CHEMBL5252515, “Discovery of 6-Amino-2-{[(1S)-1-methylbutyl]oxy}-9-[5-(1-piperidinyl)pentyl]-7,9-dihydro-8H-purin-8-one (GSK2245035), a Highly Potent and Selective Intranasal Toll-Like Receptor 7 Agonist for the Treatment of Asthma” (J Med Chem, 2016).
The source made the active and inactive calls. No cut-off for these calls is given here.

Legend:
[1] = Systemic clearance in mouse; assay type: ADME, organism-based; details: in vivo
[2] = Tmax in cynomolgus monkey after intranasal administration; assay type: ADME, Macaca fascicularis; details: in vivo, inhaled or intranasal
Toll-like receptor 7 = target: T1, Toll-like receptor 7 (Homo sapiens, UniProt Q9NYK1); assay: Agonist activity at TLR7 (unknown origin) expressed in human U2OS cells assessed as induction of NF-kappaB driven TNFalpha production by luciferase reporter assay; assay type: cell-based
T1 sequence (Q9NYK1 whole entry): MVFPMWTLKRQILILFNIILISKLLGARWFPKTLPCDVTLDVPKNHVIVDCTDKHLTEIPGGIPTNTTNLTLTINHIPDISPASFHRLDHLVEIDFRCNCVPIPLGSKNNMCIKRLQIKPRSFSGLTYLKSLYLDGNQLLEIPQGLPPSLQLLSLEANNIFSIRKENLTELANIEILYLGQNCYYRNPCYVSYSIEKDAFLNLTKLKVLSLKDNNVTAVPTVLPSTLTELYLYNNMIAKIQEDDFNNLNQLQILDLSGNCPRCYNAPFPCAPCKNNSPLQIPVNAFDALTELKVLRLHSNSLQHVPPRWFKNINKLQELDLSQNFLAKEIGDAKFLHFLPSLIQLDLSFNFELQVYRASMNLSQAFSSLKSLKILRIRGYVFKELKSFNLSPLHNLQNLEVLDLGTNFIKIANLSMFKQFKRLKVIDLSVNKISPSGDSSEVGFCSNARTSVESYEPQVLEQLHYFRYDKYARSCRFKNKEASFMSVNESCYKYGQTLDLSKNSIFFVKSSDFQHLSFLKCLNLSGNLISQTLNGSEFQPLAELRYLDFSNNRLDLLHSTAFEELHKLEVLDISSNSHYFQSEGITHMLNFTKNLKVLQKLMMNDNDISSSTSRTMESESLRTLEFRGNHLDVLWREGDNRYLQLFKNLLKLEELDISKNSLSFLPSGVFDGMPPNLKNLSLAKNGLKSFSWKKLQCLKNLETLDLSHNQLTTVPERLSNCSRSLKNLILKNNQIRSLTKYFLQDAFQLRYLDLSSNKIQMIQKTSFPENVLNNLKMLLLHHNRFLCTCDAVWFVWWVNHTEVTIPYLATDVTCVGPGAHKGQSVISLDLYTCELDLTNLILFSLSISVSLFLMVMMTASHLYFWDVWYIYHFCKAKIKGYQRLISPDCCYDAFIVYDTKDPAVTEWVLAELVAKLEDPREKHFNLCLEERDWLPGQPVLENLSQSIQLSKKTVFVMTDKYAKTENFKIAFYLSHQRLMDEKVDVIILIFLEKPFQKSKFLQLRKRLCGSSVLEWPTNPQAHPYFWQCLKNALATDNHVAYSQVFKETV

Mus musculus = assay: Increase in IFN-alpha level in BALB/c mouse serum at 0.3 mg/kg, administered intranasally after 6 hrs by ELISA; assay type: functional, organism-based
PBMC = assay: Immunomodulatory activity in human PBMC assessed as reduction in timothy grass induced IL-13 level after 6 days; assay type: functional, cell-based; details: dose 0.01-10000 nM, time 6.0 day
Toll-like receptor 8 = target: T2, Toll-like receptor 8 (Homo sapiens, UniProt Q9NR97); assay: Agonist activity at TLR8 (unknown origin) expressed in human U2OS cells by luciferase reporter assay; assay type: cell-based
T2 sequence (Q9NR97 whole entry): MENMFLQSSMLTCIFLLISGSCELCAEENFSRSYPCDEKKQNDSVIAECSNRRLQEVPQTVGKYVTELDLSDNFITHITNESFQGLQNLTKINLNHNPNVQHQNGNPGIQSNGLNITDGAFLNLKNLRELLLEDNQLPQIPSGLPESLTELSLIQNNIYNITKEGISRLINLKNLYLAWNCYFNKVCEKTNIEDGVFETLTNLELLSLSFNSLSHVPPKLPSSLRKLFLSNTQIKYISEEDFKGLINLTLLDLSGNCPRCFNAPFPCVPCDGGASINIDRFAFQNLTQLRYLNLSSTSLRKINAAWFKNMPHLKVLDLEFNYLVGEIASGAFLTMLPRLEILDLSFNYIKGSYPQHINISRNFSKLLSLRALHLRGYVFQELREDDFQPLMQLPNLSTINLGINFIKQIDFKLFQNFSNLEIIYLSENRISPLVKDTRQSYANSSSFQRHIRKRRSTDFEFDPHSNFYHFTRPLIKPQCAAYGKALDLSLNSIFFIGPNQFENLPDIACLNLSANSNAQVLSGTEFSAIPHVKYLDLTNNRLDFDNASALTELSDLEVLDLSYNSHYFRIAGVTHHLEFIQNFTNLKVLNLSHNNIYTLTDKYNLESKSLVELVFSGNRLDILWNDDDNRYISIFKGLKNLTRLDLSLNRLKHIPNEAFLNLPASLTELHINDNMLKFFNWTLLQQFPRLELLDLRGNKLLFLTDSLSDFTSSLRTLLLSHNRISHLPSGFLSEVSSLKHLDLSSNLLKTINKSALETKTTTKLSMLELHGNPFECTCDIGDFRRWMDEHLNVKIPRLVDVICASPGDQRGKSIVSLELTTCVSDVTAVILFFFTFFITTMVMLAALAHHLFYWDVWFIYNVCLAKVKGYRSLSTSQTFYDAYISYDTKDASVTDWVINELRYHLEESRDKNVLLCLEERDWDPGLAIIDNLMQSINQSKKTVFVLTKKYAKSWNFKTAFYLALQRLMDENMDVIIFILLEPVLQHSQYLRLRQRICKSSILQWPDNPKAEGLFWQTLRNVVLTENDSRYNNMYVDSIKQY

Cynomolgus monkey = assay: Induction of plasma cytokines in cynomolgus monkey; assay type: functional, organism-based; details: Macaca fascicularis
[3] = Toxicity in female rat assessed as NOAEL after 14 days; details: in vivo, time 14 day

clearance [1]: 107 mL/min/kg
Tmax [2]: ≤ 5 min
EC50 (Toll-like receptor 7): 1260 nM
EC50 (Toll-like receptor 8): 20 µM
Structure (SMILES): CCC[C@H](C)Oc1nc(N)c2[nH]c(=O)n(CCCCCN3CCCCC3)c2n1 [GSK-2245035]
Activity (Mus musculus): inactive
Activity (PBMC): Dose-Dependent Effect
Activity (Cynomolgus monkey): inactive
NOAEL at 336 h [3]: 0.772 mg/kg/day
